These compounds were tested on HBsAg (assay: HBsAg assay (CLIA of secreted HBsAg in HepG2.2.15 culture supernatant)). Details: Hepatitis B virus, HepG2.2.15, read-out: IC50 (HBsAg assay).
Type: cell-based, HBV
Experimental: (§1) HepG2.2.15 cells (Acs et al. Proc Natl Acad Sci USA, 84, (1987), 4641-4), a constitutively HBV-expressing cell line were cultured in DMEM+Glutamax-I medium (Invitrogen, Carlsbad, Calif., USA), supplemented with 10% fetal bovine serum (Invitrogen) and G418 (Invitrogen) at a final concentration of 200 mg/L and maintained in 5% CO2 at 37° C.
HepG2.2.15 cells were seeded in duplicate into white, 96-well plates at 1.5×10^4 cells/well. The cells were treated with a three-fold serial dilution series of the compounds in DMSO. The final DMSO concentration in all wells was 1% and DMSO was used as no drug control.
The HBsAg chemiluminescence immunoassay (CLIA) kit (Autobio Diagnostics Co., Zhengzhou, China, Catalog number: CL0310-2) was used to measure the levels of secreted HBV antigens semi-quantitatively. For the detection 50 μL/well culture supernatant was used and HBsAg was quantified using HBsAg chemiluminescence immunoassay (CLIA) kit (Autobio Diagnostics Co., Zhengzhou, China, Catalog number: CL0310-2), 50 μL of the supernatant was transferred to the CLIA assay plate and 50 μL of enzyme conjugate reagent was added into each well. The plates were sealed and gently agitated for 1 hour at room temperature. The supernatant-enzyme-mixture was discarded and wells were washed 6 times with 300 μL of PBS. The residual liquid was removed by plating the CLIA plate right side down on absorbent tissue paper. 25 μL of substrates A and B were added to each well. Luminance was measured using a luminometer (Mithras LB 940 Multimode Microplate Reader) after 10 minutes incubation. Dose-response curves were generated and the IC50 value was extrapolated by using the E-WorkBook Suite (ID Business Solutions Ltd., Guildford, UK). The IC50 was defined as the compound concentration at which HBsAg secretion was reduced by 50% compared to the no drug control.
For Cc1ccc(C(=O)N2CCc3nc(-c4ccccn4)ncc3C2)cc1F [Example 28, (3-Fluoro-4-methyl-phenyl)-[2-(2-pyridyl)-7,8-dihydro-5H-pyrido[4,3-d]pyrimidin-6-yl]methanone], the IC50 was 9.34 µM.
CCC1c2cnc(-c3ccccn3)nc2CCN1C(=O)c1ccc(OC)c(OC)c1 (single isomer, unassigned; (-)) [Example 35, (−)-(3,4-Dimethoxyphenyl)-[5-ethyl-2-(2-pyridyl)-7,8-dihydro-5H-pyrido[4,3-d]pyrimidin-6-yl]methanone] showed an IC50 of 2.72 µM.
Compound COCCCOc1ccc(C(=O)N2CCc3nc(-c4ccccn4)ncc3C2)cc1F [Example 15, [3-Fluoro-4-(3-methoxypropoxy)phenyl]-[2-(2-pyridyl)-7,8-dihydro-5H-pyrido[4,3-d]pyrimidin-6-yl]methanone] has an IC50 of 4.89 µM.
For COc1ccc(C(=O)N2CCc3nc(-c4ccccn4)ncc3C2)cc1F [Example 7, (3-Fluoro-4-methoxy-phenyl)-[2-(2-pyridyl)-7,8-dihydro-5H-pyrido[4,3-d]pyrimidin-6-yl]methanone], the IC50 was 4.86 µM.
With COc1cc(C(=O)N2CCc3nc(-c4ccccn4)ncc3C2)cc(OC)c1OC [Example 16, [2-(2-Pyridyl)-7,8-dihydro-5H-pyrido[4,3-d]pyrimidin-6-yl]-(3,4,5-trimethoxyphenyl)methanone] the IC50 was 8.23 µM.
In the case of COc1ccc(C(=O)N2CCc3nc(-c4ccccn4)ncc3C2C)s1 (centres unmarked) [Example 58, (5-Methoxy-2-thienyl)-[5-methyl-2-(2-pyridyl)-7,8-dihydro-5H-pyrido[4,3-d]pyrimidin-6-yl]methanone], the IC50 is reported as 0.279 µM.
Work on CC1c2cnc(-c3ccccn3)nc2CCN1C(=O)c1nccs1 (centres unmarked) [Example 51, [5-Methyl-2-(2-pyridyl)-7,8-dihydro-5H-pyrido[4,3-d]pyrimidin-6-yl]-thiazol-2-yl-methanone] yielded an IC50 of 0.627 µM.
With CC1c2cnc(-c3ccccn3)nc2CCN1C(=O)c1cc2ccccc2s1 (centres unmarked) [Example 48, Benzothiophen-2-yl-[5-methyl-2-(2-pyridyl)-7,8-dihydro-5H-pyrido[4,3-d]pyrimidin-6-yl]methanone] the IC50 was 0.472 µM.
O=C(c1ccccc1)N1CCc2nc(-c3ccccn3)ncc2C1 [Example 4, Phenyl-[2-(2-pyridyl)-7,8-dihydro-5H-pyrido[4,3-d]pyrimidin-6-yl]methanone] was tested, and the IC50 was 24.3 µM.
Cc1cc(C(=O)N2CCc3nc(-c4ccccn4)ncc3C2)no1 [Example 33, (5-Methylisoxazol-3-yl)-[2-(2-pyridyl)-7,8-dihydro-5H-pyrido[4,3-d]pyrimidin-6-yl]methanone] showed an IC50 of 8.11 µM.
Work on COCCOc1ccc(C(=O)N2CCc3nc(-c4ccccn4)ncc3C2)cc1F [Example 14, [3-Fluoro-4-(2-methoxyethoxy)phenyl]-[2-(2-pyridyl)-7,8-dihydro-5H-pyrido[4,3-d]pyrimidin-6-yl]methanone] yielded an IC50 of 20 µM.
Work on COc1cc(Cl)cc(C(=O)N2CCc3nc(-c4ccccn4)ncc3C2)c1 [Example 18, (3-Chloro-5-methoxy-phenyl)-[2-(2-pyridyl)-7,8-dihydro-5H-pyrido[4,3-d]pyrimidin-6-yl]methanone] yielded an IC50 of 10 µM.
Work on Cc1ccc(C(=O)N2CCc3nc(-c4ccccn4)ncc3C2C)s1 (centres unmarked) [Example 43, [5-Methyl-2-(2-pyridyl)-7,8-dihydro-5H-pyrido[4,3-d]pyrimidin-6-yl]-(5-methyl-2-thienyl)methanone] yielded an IC50 of 0.326 µM.
CC1c2cnc(-c3ncccn3)nc2CCN1C(=O)c1nn(Cc2ccccc2)c2ccccc12 (centres unmarked) [Example 65, (1-Benzylindazol-3-yl)-(5-methyl-2-pyrimidin-2-yl-7,8-dihydro-5H-pyrido[4,3-d]pyrimidin-6-yl)methanone] showed an IC50 of 0.39 µM.
Compound O=C(c1ccc([N+](=O)[O-])cc1)N1CCc2nc(-c3ccccn3)ncc2C1 [Example 3, (4-Nitrophenyl)-[2-(2-pyridyl)-7,8-dihydro-5H-pyrido[4,3-d]pyrimidin-6-yl]methanone] has an IC50 of 27.3 µM.
Cc1csc(C(=O)N2CCc3nc(-c4ccccn4)ncc3C2C)c1 (centres unmarked) [Example 41, [5-Methyl-2-(2-pyridyl)-7,8-dihydro-5H-pyrido[4,3-d]pyrimidin-6-yl]-(4-methyl-2-thienyl)methanone] gave an IC50 of 0.38 µM.
Compound CC1c2cnc(-c3ncccn3)nc2CCN1C(=O)c1nn(C)c2ccccc12 (centres unmarked) [Example 62, (1-Methylindazol-3-yl)-(5-methyl-2-pyrimidin-2-yl-7,8-dihydro-5H-pyrido[4,3-d]pyrimidin-6-yl)methanone] has an IC50 of 0.42 µM.
With COc1cc(F)cc(C(=O)N2CCc3nc(-c4ccccn4)ncc3C2)c1 [Example 38, (3-Fluoro-5-methoxy-phenyl)-[2-(2-pyridyl)-7,8-dihydro-5H-pyrido[4,3-d]pyrimidin-6-yl]methanone] the IC50 was 21.7 µM.
O=C(c1ccc(O)c(Cl)c1)N1CCc2nc(-c3ccccn3)ncc2C1 [Example 23, (3-chloro-4-hydroxy-phenyl)-[2-(2-pyridyl)-7,8-dihydro-5H-pyrido[4,3-d]pyrimidin-6-yl]methanone] gave an IC50 of 21.2 µM.

These compounds were tested on HBV DNA (assay: HBV DNA assay (real-time qPCR of extracellular HBV DNA, HepG2.2.15 cells)). Details: Hepatitis B virus, 144 h, extracellular HBV DNA in supernatant, six days after treatment, read-out: IC50 (Anti HBV DNA production activity).
Type: cell-based
Experimental: as §1
The assay employs real-time qPCR (TaqMan) to directly measure extracellular HBV DNA copy number in the cell supernatant. HepG2.2.15 cells were plated in 96-well microtiter plates before treatment with complete medium (DMEM, Glutamax, 10% FBS, 1% Penicillin/Streptomycin, 250 μg/mL Genetycin, final DMSO concentration is 1%). Only the interior wells were utilized to reduce “edge effects” observed during cell culture, the exterior wells were filled with complete medium to help minimize sample evaporation. […]
With COc1ccc(C(=O)N2CCc3nc(-c4ccccn4)ncc3C2C)s1 (centres unmarked) [Example 58, (5-Methoxy-2-thienyl)-[5-methyl-2-(2-pyridyl)-7,8-dihydro-5H-pyrido[4,3-d]pyrimidin-6-yl]methanone] the IC50 was 41.9 µM.
